Experimental data: ChEMBL document CHEMBL5291721, “A preclinical secondary pharmacology resource illuminates target-adverse drug reaction associations of marketed drugs” (Nat Commun, 2023)

Legend:
[1] = target: T1, Type-2 angiotensin II receptor (Homo sapiens, UniProt P50052); format: functional
T1 sequence (P50052 whole entry): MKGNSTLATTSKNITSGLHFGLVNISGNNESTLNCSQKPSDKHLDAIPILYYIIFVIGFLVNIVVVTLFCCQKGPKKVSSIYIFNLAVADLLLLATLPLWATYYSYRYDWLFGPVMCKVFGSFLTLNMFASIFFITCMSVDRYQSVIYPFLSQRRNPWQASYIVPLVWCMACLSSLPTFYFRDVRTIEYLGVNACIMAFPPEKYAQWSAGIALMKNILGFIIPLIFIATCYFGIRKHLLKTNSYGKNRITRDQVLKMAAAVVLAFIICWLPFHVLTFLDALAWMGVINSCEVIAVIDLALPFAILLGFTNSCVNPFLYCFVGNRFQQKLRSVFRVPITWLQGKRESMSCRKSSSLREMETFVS

[2] = target: 5-hydroxytryptamine receptor 5A (Homo sapiens, UniProt P47898)
[3] = target: T2, Muscarinic acetylcholine receptor M5 (Homo sapiens, UniProt P08912)
T2 sequence (P08912 whole entry): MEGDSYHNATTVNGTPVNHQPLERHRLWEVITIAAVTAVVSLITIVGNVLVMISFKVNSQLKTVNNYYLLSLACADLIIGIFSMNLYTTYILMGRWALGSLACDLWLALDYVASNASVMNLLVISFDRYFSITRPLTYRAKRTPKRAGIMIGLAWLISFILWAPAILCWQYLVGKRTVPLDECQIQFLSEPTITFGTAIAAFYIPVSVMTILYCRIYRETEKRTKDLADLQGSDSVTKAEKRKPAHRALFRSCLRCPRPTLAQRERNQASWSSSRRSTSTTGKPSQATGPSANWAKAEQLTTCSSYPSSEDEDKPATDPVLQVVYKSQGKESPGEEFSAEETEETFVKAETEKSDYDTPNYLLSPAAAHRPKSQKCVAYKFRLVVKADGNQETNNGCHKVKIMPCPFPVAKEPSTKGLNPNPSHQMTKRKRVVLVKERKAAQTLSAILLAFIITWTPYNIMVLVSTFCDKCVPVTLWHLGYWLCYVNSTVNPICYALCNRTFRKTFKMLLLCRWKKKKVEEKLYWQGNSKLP

[4] = target: T3, Muscarinic acetylcholine receptor M2 (Homo sapiens, UniProt P08172)
T3 sequence (P08172 whole entry): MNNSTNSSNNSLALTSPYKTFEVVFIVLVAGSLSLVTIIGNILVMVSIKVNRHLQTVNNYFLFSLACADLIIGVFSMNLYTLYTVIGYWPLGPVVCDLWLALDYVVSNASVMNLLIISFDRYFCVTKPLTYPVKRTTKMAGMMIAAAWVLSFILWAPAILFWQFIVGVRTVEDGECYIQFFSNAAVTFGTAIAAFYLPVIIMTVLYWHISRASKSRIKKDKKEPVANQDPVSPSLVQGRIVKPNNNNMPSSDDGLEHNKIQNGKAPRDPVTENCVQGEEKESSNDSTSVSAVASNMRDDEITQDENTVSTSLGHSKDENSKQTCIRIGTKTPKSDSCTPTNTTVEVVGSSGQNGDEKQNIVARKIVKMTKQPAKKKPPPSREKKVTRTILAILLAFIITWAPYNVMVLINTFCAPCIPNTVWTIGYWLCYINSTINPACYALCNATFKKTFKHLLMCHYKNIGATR

[5] = target: T4, Substance-K receptor (Homo sapiens, UniProt P21452)
T4 sequence (P21452 whole entry): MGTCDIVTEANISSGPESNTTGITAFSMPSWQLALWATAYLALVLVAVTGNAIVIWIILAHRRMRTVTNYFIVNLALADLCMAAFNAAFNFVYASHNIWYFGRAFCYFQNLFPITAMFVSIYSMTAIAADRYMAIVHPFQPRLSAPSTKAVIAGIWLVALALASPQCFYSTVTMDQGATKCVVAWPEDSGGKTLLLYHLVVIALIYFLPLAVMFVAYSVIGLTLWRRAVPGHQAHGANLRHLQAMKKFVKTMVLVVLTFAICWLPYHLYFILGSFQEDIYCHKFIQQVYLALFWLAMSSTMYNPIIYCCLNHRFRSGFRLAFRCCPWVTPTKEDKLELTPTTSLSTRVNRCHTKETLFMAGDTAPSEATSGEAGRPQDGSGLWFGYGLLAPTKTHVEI

[6] = target: Gamma-aminobutyric acid type B receptor subunit 1 (Homo sapiens, UniProt Q9UBS5)
[7] = target: T5, Glucocorticoid receptor (Homo sapiens, UniProt P04150); format: functional
T5 sequence (P04150 whole entry): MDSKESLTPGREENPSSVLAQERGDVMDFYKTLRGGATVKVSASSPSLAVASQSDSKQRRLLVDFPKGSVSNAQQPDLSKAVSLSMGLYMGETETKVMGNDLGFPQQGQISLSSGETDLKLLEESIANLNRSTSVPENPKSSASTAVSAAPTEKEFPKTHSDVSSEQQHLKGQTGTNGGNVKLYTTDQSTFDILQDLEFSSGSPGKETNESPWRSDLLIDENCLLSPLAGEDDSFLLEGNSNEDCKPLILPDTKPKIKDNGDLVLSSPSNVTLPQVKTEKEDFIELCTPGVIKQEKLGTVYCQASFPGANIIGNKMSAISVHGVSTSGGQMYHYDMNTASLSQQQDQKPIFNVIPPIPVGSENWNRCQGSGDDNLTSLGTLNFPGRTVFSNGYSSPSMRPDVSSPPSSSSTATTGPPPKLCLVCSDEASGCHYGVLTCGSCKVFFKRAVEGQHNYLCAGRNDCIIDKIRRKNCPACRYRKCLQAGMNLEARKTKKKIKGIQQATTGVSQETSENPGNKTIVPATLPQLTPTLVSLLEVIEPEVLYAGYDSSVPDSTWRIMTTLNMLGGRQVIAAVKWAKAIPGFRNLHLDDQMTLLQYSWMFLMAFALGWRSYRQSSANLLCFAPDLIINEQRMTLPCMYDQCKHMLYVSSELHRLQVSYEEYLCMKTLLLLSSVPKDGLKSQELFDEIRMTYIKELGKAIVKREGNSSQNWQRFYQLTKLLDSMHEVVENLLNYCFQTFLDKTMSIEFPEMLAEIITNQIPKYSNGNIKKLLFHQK

[8] = target: Estrogen receptor beta (Homo sapiens, UniProt Q92731)
[9] = target: Voltage-dependent L-type calcium channel subunit alpha-1C (Homo sapiens, UniProt Q13936); format: functional, cell-based
[10] = target: T6, D(1A) dopamine receptor (Homo sapiens, UniProt P21728); format: functional, cell-based
[11] = target: T6, D(1A) dopamine receptor
Also: assay procedure not described here.

T6 sequence (P21728 whole entry): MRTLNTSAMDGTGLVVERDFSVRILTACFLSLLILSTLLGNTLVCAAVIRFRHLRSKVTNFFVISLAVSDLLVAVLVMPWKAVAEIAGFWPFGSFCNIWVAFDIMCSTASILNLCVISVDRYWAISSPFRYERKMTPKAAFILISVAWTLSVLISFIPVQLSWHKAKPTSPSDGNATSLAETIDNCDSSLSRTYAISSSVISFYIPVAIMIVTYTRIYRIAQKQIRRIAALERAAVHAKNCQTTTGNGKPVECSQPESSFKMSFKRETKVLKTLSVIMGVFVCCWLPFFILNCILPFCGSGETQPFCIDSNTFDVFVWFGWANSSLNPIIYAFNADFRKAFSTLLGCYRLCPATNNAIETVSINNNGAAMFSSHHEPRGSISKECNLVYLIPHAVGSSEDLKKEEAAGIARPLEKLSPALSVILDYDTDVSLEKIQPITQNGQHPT
Chain of Voltage-dependent L-type calcium channel subunit alpha-1C (Q13936 whole entry): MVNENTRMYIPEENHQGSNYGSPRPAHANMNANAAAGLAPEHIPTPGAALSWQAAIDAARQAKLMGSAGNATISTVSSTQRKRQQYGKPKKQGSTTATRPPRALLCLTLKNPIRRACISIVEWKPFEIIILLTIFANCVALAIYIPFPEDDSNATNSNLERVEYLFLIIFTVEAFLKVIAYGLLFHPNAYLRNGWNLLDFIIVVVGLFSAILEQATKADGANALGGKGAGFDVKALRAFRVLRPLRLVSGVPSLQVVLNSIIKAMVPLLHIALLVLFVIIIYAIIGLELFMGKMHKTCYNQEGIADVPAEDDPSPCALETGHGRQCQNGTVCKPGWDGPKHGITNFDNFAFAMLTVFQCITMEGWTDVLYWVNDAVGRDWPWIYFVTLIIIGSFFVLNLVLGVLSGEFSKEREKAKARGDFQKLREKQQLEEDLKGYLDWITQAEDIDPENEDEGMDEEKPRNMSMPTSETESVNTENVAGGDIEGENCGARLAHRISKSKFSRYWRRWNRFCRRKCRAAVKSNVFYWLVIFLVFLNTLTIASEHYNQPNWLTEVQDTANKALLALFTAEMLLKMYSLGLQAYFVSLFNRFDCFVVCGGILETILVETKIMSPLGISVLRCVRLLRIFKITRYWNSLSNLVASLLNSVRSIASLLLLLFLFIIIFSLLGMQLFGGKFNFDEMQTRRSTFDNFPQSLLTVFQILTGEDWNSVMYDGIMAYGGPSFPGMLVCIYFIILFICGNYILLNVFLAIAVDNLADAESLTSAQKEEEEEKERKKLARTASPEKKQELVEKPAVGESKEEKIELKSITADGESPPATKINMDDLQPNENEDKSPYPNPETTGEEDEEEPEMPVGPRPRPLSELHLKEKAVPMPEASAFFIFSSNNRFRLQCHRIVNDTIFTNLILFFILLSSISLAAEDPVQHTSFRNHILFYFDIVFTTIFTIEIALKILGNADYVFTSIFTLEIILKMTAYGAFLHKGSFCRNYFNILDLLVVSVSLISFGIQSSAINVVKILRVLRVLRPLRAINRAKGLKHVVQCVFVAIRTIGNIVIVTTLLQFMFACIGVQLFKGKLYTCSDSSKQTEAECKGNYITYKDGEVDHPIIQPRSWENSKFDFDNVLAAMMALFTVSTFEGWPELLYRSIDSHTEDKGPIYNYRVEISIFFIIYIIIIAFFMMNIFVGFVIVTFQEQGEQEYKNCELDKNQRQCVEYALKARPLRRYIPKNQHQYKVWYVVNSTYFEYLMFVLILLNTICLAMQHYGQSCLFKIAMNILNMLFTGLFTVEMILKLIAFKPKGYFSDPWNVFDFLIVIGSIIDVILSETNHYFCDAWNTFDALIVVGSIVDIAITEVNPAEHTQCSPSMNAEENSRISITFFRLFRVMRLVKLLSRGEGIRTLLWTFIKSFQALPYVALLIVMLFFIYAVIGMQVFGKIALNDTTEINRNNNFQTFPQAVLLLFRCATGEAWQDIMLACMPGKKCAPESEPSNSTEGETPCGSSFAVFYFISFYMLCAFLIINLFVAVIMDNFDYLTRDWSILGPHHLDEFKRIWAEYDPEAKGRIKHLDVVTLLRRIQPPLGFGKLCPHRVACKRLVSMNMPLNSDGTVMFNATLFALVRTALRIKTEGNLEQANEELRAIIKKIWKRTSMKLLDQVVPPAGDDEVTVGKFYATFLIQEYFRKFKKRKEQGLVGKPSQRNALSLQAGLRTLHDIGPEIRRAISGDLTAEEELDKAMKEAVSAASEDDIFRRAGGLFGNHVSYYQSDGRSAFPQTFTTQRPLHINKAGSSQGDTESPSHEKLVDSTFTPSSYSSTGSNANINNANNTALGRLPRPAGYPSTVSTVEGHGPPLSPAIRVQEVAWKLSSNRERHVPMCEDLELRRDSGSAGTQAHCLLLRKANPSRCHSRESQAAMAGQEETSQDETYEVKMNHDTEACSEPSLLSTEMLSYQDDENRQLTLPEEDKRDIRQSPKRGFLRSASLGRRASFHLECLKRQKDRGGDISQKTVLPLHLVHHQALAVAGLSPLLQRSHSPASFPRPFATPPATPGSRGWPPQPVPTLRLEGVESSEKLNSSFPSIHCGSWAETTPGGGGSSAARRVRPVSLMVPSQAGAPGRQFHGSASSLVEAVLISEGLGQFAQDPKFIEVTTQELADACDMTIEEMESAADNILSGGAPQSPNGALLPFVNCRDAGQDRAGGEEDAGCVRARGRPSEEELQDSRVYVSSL
Chain of Gamma-aminobutyric acid type B receptor subunit 1 (Q9UBS5 whole entry): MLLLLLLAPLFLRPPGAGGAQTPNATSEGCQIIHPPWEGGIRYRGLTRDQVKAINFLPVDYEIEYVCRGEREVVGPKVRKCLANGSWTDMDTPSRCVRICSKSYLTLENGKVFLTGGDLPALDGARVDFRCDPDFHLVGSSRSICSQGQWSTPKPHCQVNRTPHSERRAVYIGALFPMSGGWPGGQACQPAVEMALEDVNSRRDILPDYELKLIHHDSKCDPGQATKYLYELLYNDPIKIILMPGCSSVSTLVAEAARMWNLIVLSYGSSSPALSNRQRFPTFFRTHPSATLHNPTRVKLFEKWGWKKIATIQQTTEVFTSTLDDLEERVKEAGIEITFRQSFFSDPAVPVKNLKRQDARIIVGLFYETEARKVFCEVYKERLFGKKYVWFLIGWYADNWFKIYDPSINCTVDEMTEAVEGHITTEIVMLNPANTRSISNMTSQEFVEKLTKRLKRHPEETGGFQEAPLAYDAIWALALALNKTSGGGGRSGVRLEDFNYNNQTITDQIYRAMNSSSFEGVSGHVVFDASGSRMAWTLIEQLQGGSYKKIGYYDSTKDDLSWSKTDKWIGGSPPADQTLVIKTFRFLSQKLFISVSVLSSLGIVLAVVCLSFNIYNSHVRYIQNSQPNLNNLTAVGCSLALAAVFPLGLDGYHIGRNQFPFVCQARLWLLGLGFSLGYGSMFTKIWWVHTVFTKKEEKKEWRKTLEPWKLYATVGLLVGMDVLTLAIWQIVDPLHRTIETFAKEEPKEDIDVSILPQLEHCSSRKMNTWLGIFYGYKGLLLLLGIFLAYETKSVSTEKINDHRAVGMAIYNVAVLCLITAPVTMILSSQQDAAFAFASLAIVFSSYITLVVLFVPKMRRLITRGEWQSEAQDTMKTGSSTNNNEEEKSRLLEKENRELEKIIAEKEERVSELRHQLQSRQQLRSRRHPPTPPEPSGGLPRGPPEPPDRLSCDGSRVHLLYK
Chain of Estrogen receptor beta (Q92731 whole entry): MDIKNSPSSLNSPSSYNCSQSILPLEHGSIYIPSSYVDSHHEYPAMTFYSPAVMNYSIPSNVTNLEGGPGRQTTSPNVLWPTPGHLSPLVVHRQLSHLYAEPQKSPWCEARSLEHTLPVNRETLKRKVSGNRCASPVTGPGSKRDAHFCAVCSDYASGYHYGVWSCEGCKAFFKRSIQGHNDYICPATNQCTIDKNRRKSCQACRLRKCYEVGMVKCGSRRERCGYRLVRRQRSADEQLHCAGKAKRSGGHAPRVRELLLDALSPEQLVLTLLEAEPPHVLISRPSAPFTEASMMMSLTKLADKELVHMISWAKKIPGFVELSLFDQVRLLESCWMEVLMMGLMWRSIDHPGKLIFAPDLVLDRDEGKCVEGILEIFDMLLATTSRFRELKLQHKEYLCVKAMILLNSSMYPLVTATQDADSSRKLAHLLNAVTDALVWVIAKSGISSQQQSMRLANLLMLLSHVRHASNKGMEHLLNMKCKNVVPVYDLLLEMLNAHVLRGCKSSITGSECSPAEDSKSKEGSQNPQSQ
Chain of 5-hydroxytryptamine receptor 5A (P47898 whole entry): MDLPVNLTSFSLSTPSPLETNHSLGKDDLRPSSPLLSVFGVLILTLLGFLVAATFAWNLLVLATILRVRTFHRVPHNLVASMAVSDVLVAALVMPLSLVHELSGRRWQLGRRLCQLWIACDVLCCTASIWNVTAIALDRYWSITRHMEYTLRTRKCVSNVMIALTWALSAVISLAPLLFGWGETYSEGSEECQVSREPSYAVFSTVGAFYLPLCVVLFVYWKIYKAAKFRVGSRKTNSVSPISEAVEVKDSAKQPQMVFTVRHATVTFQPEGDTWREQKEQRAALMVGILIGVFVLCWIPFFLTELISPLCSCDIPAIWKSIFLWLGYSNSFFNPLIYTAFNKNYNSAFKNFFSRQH

## C[C@](N)(Cc1ccc(O)c(O)c1)C(=O)O [METHYLDOPA]
[1]
  AC50: > 100 µM

## CCCCc1ncc(/C=C(\Cc2cccs2)C(=O)O)n1Cc1ccc(C(=O)O)cc1 [EPROSARTAN]
[2]
  AC50: > 10 µM
[3]
  AC50: > 10 µM
[1]
  AC50: > 100 µM
[4]
  AC50: > 10 µM
[5]
  AC50: > 10 µM
[6]
  AC50: > 10 µM

## COc1ccc2c3c1O[C@H]1[C@@H](O)C=C[C@H]4[C@@H](C2)N(C)CC[C@@]341 [CODEINE]
[3]
  AC50: > 10 µM
[4]
  AC50: > 10 µM
[6]
  AC50: > 10 µM

## C/C(O)=C(\C#N)C(=O)Nc1ccc(C(F)(F)F)cc1 [TERIFLUNOMIDE]
[7]
  AC50: > 30 µM

## CCc1c(Cl)c(O)c(Cl)c(O)c1C(=O)O[C@H]1[C@H](O)[C@H](OC)[C@H](OC/C2=C\C=C\C[C@H](O)/C(C)=C/[C@H](CC)[C@@H](O[C@@H]3OC(C)(C)[C@@H](OC(=O)C(C)C)[C@H](O)[C@@H]3O)/C(C)=C/C(C)=C/C[C@@H]([C@@H](C)O)OC2=O)O[C@@H]1C [FIDAXOMICIN]
[4]
  AC50: > 10 µM
[8]
  AC50: > 30 µM

## CNS(=O)(=O)Cc1ccc2[nH]cc(CCN(C)C)c2c1
[6]
  AC50: > 10 µM
[8]
  AC50: > 30 µM

## CCCN(CCC)C(=O)C(CCC(=O)O)NC(=O)c1ccccc1 (centres undefined) [PROGLUMIDE]
[4]
  AC50: > 10 µM

## N#Cc1ccc([C@H]2CCc3cncn32)c(F)c1 [OSILODROSTAT]
[2]
  AC50: > 10 µM
[3]
  AC50: > 10 µM
[4]
  AC50: > 10 µM
[5]
  AC50: > 10 µM
[6]
  AC50: > 10 µM

## CCCc1nc(C(C)(C)O)c(C(=O)OCc2oc(=O)oc2C)n1Cc1ccc(-c2ccccc2-c2nnn[nH]2)cc1 [OLMESARTAN MEDOXOMIL]
[8]
  AC50: > 30 µM

## COC(=O)C1=C(C)NC(C)=C(C(=O)OC2CCCN(Cc3ccccc3)C2)C1c1cccc([N+](=O)[O-])c1 (centres undefined) [BENIDIPINE]
[9]
  AC50: 1.9 µM

## CC(C)(C)c1cc(C(C)(C)C)c(NC(=O)c2c[nH]c3ccccc3c2=O)cc1O [IVACAFTOR]
[4]
  AC50: > 10 µM

## C=CCN1CCCC1CNC(=O)c1cc(S(N)(=O)=O)cc(OC)c1OC (centres undefined) [VERALIPRIDE]
[10]
  AC50: > 30 µM
[11]
  AC50: 0.013 µM

## Clc1ccc(CCCOCCCN2CCCCC2)cc1 [PITOLISANT]
[9]
  AC50: 10.4 µM

## CN1CCN(CC/C=C2/c3ccccc3Sc3ccc(S(=O)(=O)N(C)C)cc32)CC1 [THIOTHIXENE]
[10]
  AC50: 0.98 µM
[11]
  AC50: 0.019 µM
[6]
  AC50: > 10 µM
[8]
  AC50: > 30 µM

## COC(=O)C1=C(C)NC(C)=C(C(=O)OC(C)(C)CN(C)CCC(c2ccccc2)c2ccccc2)C1c1cccc([N+](=O)[O-])c1 (centres undefined) [LERCANIDIPINE]
[9]
  AC50: > 50 µM

## CC(=O)O[C@H]1CC[C@@]2(C)C(=CC[C@@H]3[C@@H]2CC[C@]2(C)C(c4cccnc4)=CC[C@@H]32)C1 [ABIRATERONE ACETATE]
[7]
  AC50: > 30 µM
[9]
  AC50: > 30 µM

## CN1C(=O)C(O)N=C(c2ccccc2)c2cc(Cl)ccc21 (centres undefined) [TEMAZEPAM]
[4]
  AC50: > 10 µM
[8]
  AC50: > 30 µM

## CC(CC(c1ccccc1)c1ccccc1)NC(C)(C)C (centres undefined) [TERODILINE]
[9]
  AC50: > 50 µM

## CN1CCC(=C2c3ccccc3CCc3sccc32)CC1 [PIZOTYLINE]
[10]
  AC50: 0.65 µM
[4]
  AC50: 0.059 µM
